Laboratory results taken from PMC12075652, “ATP functions as a pathogen-associated molecular pattern to activate the E3 ubiquitin ligase RNF213” (Nature Communications, 2025).

How the values were obtained:
[1] = target: T1, RNF213-UBE2L3~Ub complex (RNF213-ABP) (Mus musculus, UniProt E9Q555); experiment: cryo-EM structure, […] Å; type: binding; conditions: ADP modelled in AAA3 and AAA4; ATPγS-stimulated labelling reaction applied directly to grid
T1 construct: full-length murine RNF213 covalently linked at Cys4462 to human UBE2L3~Ub activity-based probe; ubiquitin and RZ domain not resolved; with Ubiquitin-conjugating enzyme E2 L3 (Homo sapiens); Ubiquitin (Homo sapiens)

RNF213 (∆N338) [2] = target: T2, RNF213 (∆N338) (Mus musculus, UniProt E9Q555); experiment: antagonism of ATPγS-dependent activation, ABP labelling; type: biochemical; conditions: 900 μM ADP against ATPγS titration; pH 7.5, 2.5 mM MgCl2, 30 °C
T2 construct: N-terminal 338 residues deleted (∆N338), recombinant; biotin UBE2L3~Ub activity-based probe as read-out

RNF213 [3] = target: T3, RNF213 (Mus musculus, UniProt E9Q555); experiment: UBE2L3~Ub discharge assay; type: biochemical; conditions: activator; 1 mM nucleotide, 0.025 μM E3, 20 μM E2~Ub
T3 construct: full-length recombinant protein, about 600 kDa, N-terminal Strep(II) tag in the pulldown construct

RNF213 [4] = target: T4, RNF213 (Mus musculus, UniProt E9Q555, E2449Q/E2806Q); experiment: cryo-EM structure, […] Å; type: binding; conditions: ATP modelled in AAA4, AAA3 empty; WB34 mutant
T4 construct: full-length recombinant protein, about 600 kDa, N-terminal Strep(II) tag in the pulldown construct

RNF213 (∆N338) [5] = target: T2, RNF213 (∆N338); experiment: activation of RNF213 labelling by biotin UBE2L3~Ub activity-based probe, blot quantification; type: biochemical

| Structure (SMILES) | cryo-EM structure, 3.8 Å [1] | antagonism of ATPγS-dependent activation, ABP labelling (RNF213 (∆N338) [2]) | UBE2L3~Ub discharge assay (RNF213 [3]) | cryo-EM structure, 4.5 Å (RNF213 [4]) | EC50 (RNF213 (∆N338) [5]) [µM] |
| --- | --- | --- | --- | --- | --- |
| Nc1ncnc2c1ncn2[C@@H]1O[C@H](COP(=O)(O)OP(=O)(O)O)[C@@H](O)[C@H]1O [ADP] | new density at the AAA3 and AAA4 sites allowed modeling of ADP | These data suggest that ADP inhibits ATP-dependent activation |  |  |  |
| Nc1ncnc2c1ncn2[C@@H]1O[C@H](COP(=O)(O)OP(=O)(O)OP(=O)(O)O)[C@@H](O)[C@H]1O [ATP] |  |  | E3 activity was enhanced by ATP, but not by ADP or AMP | Although ATP could be modeled into AAA4, AAA3 was empty |  |
| Nc1ncnc2c1ncn2[C@@H]1O[C@H](COP(=O)(O)OP(=O)(O)NP(=O)(O)O)[C@@H](O)[C@H]1O [AMP-PNP] |  |  | (ATPγS) and adenylyl-imidodiphosphate (AMP-PNP) also stimulated E2~Ub discharge |  |  |
| Nc1ncnc2c1ncn2[C@@H]1O[C@H](COP(=O)(O)OP(=O)(O)OP(O)(O)=S)[C@@H](O)[C@H]1O [ATPγS] |  |  | (ATPγS) and adenylyl-imidodiphosphate (AMP-PNP) also stimulated E2~Ub discharge |  | 85 |
